Test results as given in ChEMBL document CHEMBL1250448, “Inhibitor hijacking of Akt activation” (Nat Chem Biol, 2009).
Blank lines part the entries; values can stand above or below the molecule they belong to. The source made the active and inactive calls. No cut-off for these calls is given here.

How the values were obtained:
PC-3 = assay: Induction of myristoylated AKT2 M225G mutant Thr308 hyperphosphorylation expressed in PC3 cells at 2.5 uM after 30 mins by immunoblotting; type: cell-based
MCF7 [1] = assay: Induction of myristoylated AKT2 M225G and kinase dead D289A mutant Ser473 hyperphosphorylation expressed in MCF7 cells at 2.5 uM after 30 mins by immunoblotting; type: cell-based
MiaPaCa2 [2] = assay: Induction of myristoylated AKT2 M225G and kinase dead D289A mutant Ser473 hyperphosphorylation expressed in MiaPaCa2 cells at 2.5 uM after 30 mins by immunoblotting; type: cell-based
[3] = system: RAC-alpha serine/threonine-protein kinase (Homo sapiens), P31749 [M227G,D292A]; assay: Induction of myristoylated AKT1 M227G and kinase dead D292A mutant Ser473 hyperphosphorylation expressed in PC3 cells at 2.5 uM after 30 mins by immunoblotting; type: cell-based; settings: PC-3
RAC-alpha serine/threonine-protein kinase (Homo sapiens), P31749 [M227G,D292A], sequence (P31749 whole entry M227G/D292A): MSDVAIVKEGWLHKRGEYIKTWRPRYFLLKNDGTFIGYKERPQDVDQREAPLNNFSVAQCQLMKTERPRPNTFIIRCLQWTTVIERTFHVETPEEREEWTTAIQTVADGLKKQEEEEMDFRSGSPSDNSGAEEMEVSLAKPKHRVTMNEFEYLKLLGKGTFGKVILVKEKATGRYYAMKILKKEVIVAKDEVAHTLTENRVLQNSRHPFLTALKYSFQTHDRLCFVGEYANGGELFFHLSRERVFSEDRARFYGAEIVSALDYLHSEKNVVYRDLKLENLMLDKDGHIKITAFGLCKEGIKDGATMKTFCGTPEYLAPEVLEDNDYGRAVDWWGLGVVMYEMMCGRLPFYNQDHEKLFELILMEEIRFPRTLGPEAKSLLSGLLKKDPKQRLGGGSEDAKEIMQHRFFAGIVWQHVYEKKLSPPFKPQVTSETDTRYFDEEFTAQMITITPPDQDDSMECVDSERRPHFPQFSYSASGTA

[4] = system: RAC-alpha serine/threonine-protein kinase (Homo sapiens), P31749 [M227G]; assay: Induction of myristoylated AKT1 M227G Ser473 hyperphosphorylation expressed in MiaPaCa2 cells at 2.5 uM after 30 mins by immunoblotting; type: cell-based
RAC-alpha serine/threonine-protein kinase (Homo sapiens), P31749 [M227G], sequence (P31749 whole entry M227G): as the sequence (P31749 whole entry M227G/D292A) above, with A292D counted along it

MiaPaCa2 [5] = assay: Induction of myristoylated AKT2 M225G mutant Ser473 hyperphosphorylation expressed in MiaPaCa2 cells at 2.5 uM after 30 mins by immunoblotting; type: cell-based
[6] = system: RAC-alpha serine/threonine-protein kinase (Homo sapiens), P31749 [M227G]; assay: Induction of myristoylated AKT1 M227G Ser473 hyperphosphorylation expressed in HEK293 cells coexpressing flag-tagged wild type AKT1 after 30 mins by immunoblotting; type: cell-based
[7] = system: RAC-alpha serine/threonine-protein kinase (Homo sapiens), P31749 [M227G]; assay: Induction of myristoylated AKT1 M227G Thr308 hyperphosphorylation expressed in HEK293 cells coexpressing flag-tagged wild type AKT1 after 30 mins by immunoblotting; type: cell-based
[8] = system: RAC-alpha serine/threonine-protein kinase (Homo sapiens), P31749 [M227G]; assay: Induction of flag tagged AKT1 M227G Thr308 hyperphosphorylation expressed in HEK293 cells at 2.5 uM after 30 mins by immunoblotting; type: cell-based
[9] = system: RAC-alpha serine/threonine-protein kinase (Homo sapiens), P31749 [M227G]; assay: Induction of mCherry tagged AKT1 M227G Ser473 hyperphosphorylation expressed in HEK293 cells at 2.5 uM after 30 mins by immunoblotting; type: cell-based
[10] = system: RAC-alpha serine/threonine-protein kinase (Homo sapiens), P31749 [M227G]; assay: Induction of mCherry tagged AKT1 M227G Thr308 hyperphosphorylation expressed in HEK293 cells at 2.5 uM after 30 mins by immunoblotting; type: cell-based
[11] = system: RAC-alpha serine/threonine-protein kinase (Homo sapiens), P31749 [M227G]; assay: Induction of myristoylated AKT1 M227G mutant Ser473 hyperphosphorylation expressed in HEK293T cells at 2.5 uM after 30 mins by immunoblotting; type: cell-based; settings: HEK-293T
HEK-293T [12] = assay: Induction myristoylated AKT2 M225G mutant Thr308 hyperphosphorylation expressed in HEK293T cells at 2.5 uM after 30 mins by immunoblotting; type: cell-based
HEK-293T [13] = assay: Induction myristoylated AKT2 M225G mutant Ser473 hyperphosphorylation expressed in HEK293T cells at 2.5 uM after 30 mins by immunoblotting; type: cell-based
HEK-293T [14] = assay: Induction of myristoylated AKT3 M229G mutant Ser473 hyperphosphorylation expressed in HEK293T cells at 2.5 uM after 30 mins by immunoblotting; type: cell-based
[15] = system: RAC-alpha serine/threonine-protein kinase (Homo sapiens), P31749 [M227G]; assay: Induction of myristoylated AKT1 M227G mutant Thr308 hyperphosphorylation expressed in HEK293T cells at 2.5 uM after 30 mins pretreated with pan-PI3K inhibitor PIK90 for 10 mins before compound addition by immunoblotting; type: cell-based; settings: HEK-293T
[16] = system: RAC-alpha serine/threonine-protein kinase (Homo sapiens), P31749 [M227G]; assay: Induction of myristoylated AKT1 M227G mutant Ser473 hyperphosphorylation expressed in HEK293T cells at 2.5 uM after 30 mins pretreated with pan-PI3K inhibitor PIK90 for 10 mins before compound addition by immunoblotting; type: cell-based; settings: HEK-293T
HEK-293T [17] = assay: Induction myristoylated AKT2 M225G mutant Thr308 hyperphosphorylation expressed in HEK293T cells at 2.5 uM after 30 mins pretreated with pan-PI3K inhibitor PIK90 for 10 mins before compound addition by immunoblotting; type: cell-based
[18] = system: RAC-alpha serine/threonine-protein kinase (Homo sapiens), P31749 [M227G]; assay: Induction of myristoylated AKT1 M227G mutant Ser473 hyperphosphorylation expressed in HEK293T cells at 2.5 uM after 30 mins pretreated with PDK1 inhibitor BX-795 for 10 mins before compound addition by immunoblotting; type: cell-based; settings: HEK-293T
HEK-293T [19] = assay: Induction myristoylated AKT2 M225G mutant Thr308 hyperphosphorylation expressed in HEK293T cells at 2.5 uM after 30 mins pretreated with PDK1 inhibitor BX-795 for 10 mins before compound addition by immunoblotting; type: cell-based
HEK-293T [20] = assay: Induction myristoylated AKT2 M225G mutant Thr308 hyperphosphorylation expressed in HEK293T cells at 2.5 uM after 30 mins pretreated with mTOR kinase inhibitor PP242 for 10 mins before compound addition by immunoblotting; type: cell-based
[21] = system: RAC-alpha serine/threonine-protein kinase (Homo sapiens), P31749 [M227G,D292A]; assay: Induction of nonmyristoylated AKT1 M227G and kinase dead D292A mutant Thr308 hyperphosphorylation expressed in HEK293T cells at 2.5 uM after 30 mins by immunoblotting; type: cell-based; settings: HEK-293T
[22] = system: RAC-alpha serine/threonine-protein kinase (Homo sapiens), P31749 [M227G,D292A]; assay: Induction of myristoylated AKT1 M227G and kinase dead D292A mutant Thr308 hyperphosphorylation expressed in MCF7 cells at 2.5 uM after 30 mins by immunoblotting; type: cell-based
MCF7 [23] = assay: Induction of myristoylated AKT2 M225G and kinase dead D289A mutant Thr308 hyperphosphorylation expressed in MCF7 cells at 2.5 uM after 30 mins by immunoblotting; type: cell-based
MCF7 [24] = assay: Induction of myristoylated AKT2 M225G mutant Thr308 hyperphosphorylation expressed in MCF7 cells at 2.5 uM after 30 mins by immunoblotting; type: cell-based
[25] = system: RAC-alpha serine/threonine-protein kinase (Homo sapiens), P31749 [M227G]; assay: Induction of myristoylated AKT1 M227G mutant Thr308 hyperphosphorylation expressed in HEK293 cells at 2.5 uM after 30 mins by immunoblotting; settings: HEK-293
[26] = target: T1, RAC-alpha serine/threonine-protein kinase (Homo sapiens, UniProt P31749); assay: Induction of flag-tagged wild type AKT1 Ser473 hyperphosphorylation expressed in HEK293 cells coexpressing HA-tagged AKT1 M227G after 30 mins by immunoblotting
T1 sequence (P31749 whole entry): as the sequence (P31749 whole entry M227G/D292A) above, with G227M, A292D counted along it

[27] = system: RAC-alpha serine/threonine-protein kinase (Homo sapiens), P31749 [M227G]; assay: Induction of AKT1 M227G Thr308 hyperphosphorylation expressed in HEK293 cells at 2.5 uM after 30 mins pretreated with allosteric AKT inhibitor Akti-1,2 10 mins before compound addition by immunoblotting
[28] = system: RAC-alpha serine/threonine-protein kinase (Homo sapiens), P31749 [M227G]; assay: Increase in catalytic activity of compound exposed AKT1 M227G mutant expressed in HEK293 cells measured post compound dissociation by in vitro immunoprecipitation kinase assay relative to untreated AKT1 M227G mutant; settings: HEK-293
[29] = target: T1, RAC-alpha serine/threonine-protein kinase; assay: Inhibition of AKT1
[30] = target: RAC-alpha serine/threonine-protein kinase (Rattus norvegicus) (UniProt P47196); assay: Induction AKT1 Thr308 hyperphosphorylation in insulin-induced rat L6 cells after 20 mins before insulin stimulation by immunoblotting; type: cell-based
RAC-alpha serine/threonine-protein kinase (Rattus norvegicus), sequence (P47196 whole entry): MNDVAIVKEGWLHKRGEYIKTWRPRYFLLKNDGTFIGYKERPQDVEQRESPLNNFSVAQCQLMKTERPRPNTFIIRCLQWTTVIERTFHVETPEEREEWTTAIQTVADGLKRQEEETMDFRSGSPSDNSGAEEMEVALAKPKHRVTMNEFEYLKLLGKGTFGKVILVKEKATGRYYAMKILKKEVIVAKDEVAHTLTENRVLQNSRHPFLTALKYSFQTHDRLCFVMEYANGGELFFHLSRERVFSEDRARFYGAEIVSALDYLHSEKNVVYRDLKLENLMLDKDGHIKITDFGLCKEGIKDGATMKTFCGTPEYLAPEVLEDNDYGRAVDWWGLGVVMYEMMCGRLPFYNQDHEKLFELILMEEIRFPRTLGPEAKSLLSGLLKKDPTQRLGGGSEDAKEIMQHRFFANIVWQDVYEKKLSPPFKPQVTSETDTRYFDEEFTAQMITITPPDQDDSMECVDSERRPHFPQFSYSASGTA

Activity [3]: Active
Activity [4]: Active
Activity [6]: Active
Activity [7]: Active
Activity [8]: Active
Activity [9]: Active
Activity [10]: Active
Activity [11]: Active
Activity [15]: inactive
Activity [16]: inactive
Activity [18]: inactive
Activity [21]: Active
Activity [22]: Active
Activity [25]: Active
Activity [26]: inactive
Activity [27]: inactive
fold change (FC) [28]: 10
Structure (SMILES): CCCc1cc(-c2cncc(OC[C@@H](N)Cc3c[nH]c4ccccc34)c2)cc2c(C)n[nH]c12
Activity (PC-3): Active
Activity (MCF7 [1]): Active
Activity (MiaPaCa2 [2]): Active
Activity (MiaPaCa2 [5]): Active
Activity (HEK-293T [12]): Active
Activity (HEK-293T [13]): Active
Activity (HEK-293T [14]): Active
Activity (HEK-293T [17]): inactive
Activity (HEK-293T [19]): inactive
Activity (HEK-293T [20]): Active
Activity (MCF7 [23]): Active
Activity (MCF7 [24]): Active

IC50 [29]: 22 µM
Activity [30]: inactive
Structure (SMILES): COc1ccccc1N1CCN(c2ncnc3[nH]nc(Br)c23)CC1
